According to ChEMBL document CHEMBL1201862, “PubChem BioAssay data set” (2004):
Calls of active or inactive are those of the source.

Assays:
HEK293 [1] = experiment: PMA/Ionomycin induced NF-kB luciferase assay in 293- NF-kB-Luc stable cells. [Related pubchem assays: 1299, 1270, 1295, 1375, 1287, 1281, 1293, 1291, 1289, 1280, 465, 1364, 1282, 1372, 1365, 1370, 1367, 1366, 1269, 1373, 1292, 1290, 1302, 1371, 1283, 1271, 1294, 1374, 1368, 1369 ]; assay type: functional, cell-based; details: Homo sapiens
[2] = target: Luciferin 4-monooxygenase (Photinus pyralis, UniProt P08659); experiment: In vitro luciferase assay using purified luciferase. [Related pubchem assays: 1299, 1270, 1295, 1375, 1287, 1281, 1293, 1291, 1289, 1280, 465, 1364, 1282, 1372, 1365, 1370, 1367, 1366, 1266, 1373, 1292, 1290, 1302, 1371, 1283, 1271, 1294, 1374, 1368, 1369 ]
Sequence of Luciferin 4-monooxygenase (P08659 whole entry): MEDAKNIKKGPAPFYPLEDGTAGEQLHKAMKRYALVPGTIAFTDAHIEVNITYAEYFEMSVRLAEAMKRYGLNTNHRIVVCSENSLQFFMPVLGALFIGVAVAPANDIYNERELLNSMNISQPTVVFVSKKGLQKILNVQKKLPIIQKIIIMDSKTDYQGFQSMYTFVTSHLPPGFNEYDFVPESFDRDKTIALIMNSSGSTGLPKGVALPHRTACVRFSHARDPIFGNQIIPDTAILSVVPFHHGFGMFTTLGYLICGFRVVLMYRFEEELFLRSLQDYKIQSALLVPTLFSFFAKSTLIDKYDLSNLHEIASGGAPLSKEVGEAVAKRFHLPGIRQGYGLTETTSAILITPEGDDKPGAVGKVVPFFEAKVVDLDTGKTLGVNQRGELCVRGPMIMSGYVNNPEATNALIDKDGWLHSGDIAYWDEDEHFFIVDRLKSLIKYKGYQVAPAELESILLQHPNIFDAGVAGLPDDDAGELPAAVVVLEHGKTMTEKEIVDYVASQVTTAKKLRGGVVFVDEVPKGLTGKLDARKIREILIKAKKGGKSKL

HEK293 [3] = experiment: PMA/Ionomycin-induced IL-8 production in HEK293- NF-kB-Luc stable cells. [Related pubchem assays: 1299, 1295, 1375, 1287, 1281, 1293, 1291, 1289, 1280, 465, 1364, 1282, 1372, 1365, 1367, 1366, 1266, 1269, 1373, 1292, 1290, 1302, 1371, 1283, 1271, 1294, 1374, 1368, 1369 ]; assay type: functional, cell-based; details: Homo sapiens
HEK293 [4] = experiment: Cytotoxicity assay in HEK293 cells. [Related pubchem assays (depositor defined):AID1266, AID1269, AID1270, AID1271, AID1280, AID1281, AID1282, AID1283, AID1287, AID1289, AID1290, AID1291, AID1292, AID1293, AID1294, AID1295, AID1299, AID1302, AID1364, AID1365, AID1366, AID1367, AID1369, AID1370, AID1371, AID1372, AID1373, AID1374, AID1375, AID1384 …; assay type: functional, cell-based; details: Homo sapiens
[5] = target: Heat shock protein HSP 90-alpha (Homo sapiens, UniProt P07900); experiment: Luminescence-based dose response biochemical high throughput screening assay for inhibitors of the Heat Shock Protein 90 (HSP90). [Related pubchem assays: 1831 (Summary AID.), 1846 (Confirmation screen.), 1789 (Primary screen.)]
HEK293 [6] = experiment: TNF Induced NF-kB Luciferase in 293-NF-kB-Luc Stable Cells. [Related pubchem assays: 1266, 1299, 1269, 1373, 1292, 1290, 1302, 1371, 1283, 1270, 1295, 1271, 1375, 1294, 1374, 1281, 1293, 1291, 1289, 1280, 465, 1368, 1364, 1282, 1372, 1365, 1369, 1370, 1367, 1366 ]; assay type: functional, cell-based; details: Homo sapiens
[7] = cytotoxicity in HEK-293T cells, dose response, cytotoxicity control for BCR NF-kB inhibitor project, luminescence, B-cell screen hits (AID 489021); assay type: functional, cell-based;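 note: HEK-293T cells carrying an NF-kB luciferase reporter; cells exposed to compound for about 14 hours before viability readout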
[8] = inhibitors of HIV Env-driven cell fusion, dose response, cherry-pick (AID 652057); assay type: functional, cell-based
[9] = ZM109 Env clade C HIV-1 fusion inhibitors, dose response, HeLa effector, CEM target cells, luciferase, cherry-pick (AID 652058); assay type: functional, cell-based
Paired box protein Pax-8 = Paired box protein Pax-8 (Homo sapiens, UniProt Q06710); experiment: inhibitors of PAX8-driven TPO luciferase reporter, dose response, RMG-I cells, cherry-pick (AID 687027); assay type: functional, cell-based;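 note: luciferase reporter driven by Pax8 target thyroperoxidase promoter measured by SteadyGlo luminescence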
Sequence of Paired box protein Pax-8 (Q06710 whole entry, the tested form may be a part): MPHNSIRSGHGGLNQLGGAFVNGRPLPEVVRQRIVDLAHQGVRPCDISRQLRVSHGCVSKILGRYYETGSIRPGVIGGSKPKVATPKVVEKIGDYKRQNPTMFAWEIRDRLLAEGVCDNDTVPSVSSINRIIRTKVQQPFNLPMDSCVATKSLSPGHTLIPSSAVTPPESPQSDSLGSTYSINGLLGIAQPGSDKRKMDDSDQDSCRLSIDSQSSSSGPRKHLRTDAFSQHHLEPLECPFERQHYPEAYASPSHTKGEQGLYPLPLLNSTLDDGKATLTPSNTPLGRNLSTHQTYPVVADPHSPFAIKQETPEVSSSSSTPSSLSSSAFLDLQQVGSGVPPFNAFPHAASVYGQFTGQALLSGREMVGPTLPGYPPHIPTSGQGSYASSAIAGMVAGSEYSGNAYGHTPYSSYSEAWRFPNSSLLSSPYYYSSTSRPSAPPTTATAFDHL

[10] = off-target signal loss in HeLa-CEM21 co-culture – HeLa F-luc CTL cells, cherry-picked, counter-screen for HIV-1 Env fusion inhibitor project, dose response (AID 652040); assay type: functional, cell-based;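 note: potency for signal decrease marking cytotoxic or nonspecific inhibition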
[11] = inhibitors of clade B AD8 Env fusion, dose response, cell-based, cherry-pick (AID 652062); assay type: functional;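 note: luciferase signal from cell-cell fusion driven by HIV-1 clade B AD8 Env; potency is for inhibitors of fusion seen as a drop in luminescence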
[12] = tested on: Streptococcus sp. 'group A'; experiment: growth inhibition of control SK(-) GAS strain, dose response, counter-screen for streptokinase expression inhibitor project, luminescence, kanamycin, BacTiterGlo, confirmation (AID 1900); assay type: functional, organism-based
Streptokinase A = target: T1, Streptokinase A (Streptococcus pyogenes serotype M1, UniProt P10520); experiment: S. pyogenes streptokinase expression inhibitors, potency, dose response, plasminogen activation absorbance, OD405 (AID 1914); assay type: functional, Streptococcus pyogenes M1 GAS;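 note: secreted streptokinase activity via plasminogen activation per viability signal from cell pellet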
T1 sequence (P10520 whole entry): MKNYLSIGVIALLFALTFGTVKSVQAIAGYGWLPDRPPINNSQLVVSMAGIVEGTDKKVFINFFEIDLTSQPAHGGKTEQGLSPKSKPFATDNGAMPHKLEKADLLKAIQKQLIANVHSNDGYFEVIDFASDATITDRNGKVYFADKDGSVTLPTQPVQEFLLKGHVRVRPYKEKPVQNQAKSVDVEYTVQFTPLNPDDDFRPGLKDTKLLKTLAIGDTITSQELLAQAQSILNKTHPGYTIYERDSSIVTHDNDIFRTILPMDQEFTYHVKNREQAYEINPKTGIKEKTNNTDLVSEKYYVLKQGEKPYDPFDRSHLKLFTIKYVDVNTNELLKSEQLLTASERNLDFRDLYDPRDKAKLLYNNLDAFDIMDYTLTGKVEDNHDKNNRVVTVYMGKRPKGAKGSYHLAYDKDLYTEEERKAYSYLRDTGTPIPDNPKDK

Streptococcus = experiment: Group A Streptococcus viability loss, dose response, counter-screen for streptokinase expression inhibitor project, luminescence, BacTiterGlo (AID 1915); assay type: functional, organism-based;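 note: potency for reduction of bacterial viability or growth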
HeLa = experiment: HeLa cell cytotoxicity, dose response, cytotoxicity control, 24 h, cherry-picked samples (AID 504726); assay type: functional, cell-based; details: Homo sapiens;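 note: potency for cytotoxicity as loss of luminescence signal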
[13] = Luminescence Cell-Based Dose Retest to Confirm Inhibitors of Cancer Stem Cells. [Related pubchem assays (depositor defined):AID2717, AID2721]; assay type: functional; details: Homo sapiens
Salmon testes DNA = experiment: DNA intercalators displacing acridine orange, dose response, artefact control for KSHV LANA DNA-binding inhibitor project, biochemical, fluorescence polarization, cherry-picked samples, set 2 (AID 504727); set-up: species or system Salmonidae
ORF 73 = ORF 73 (Human herpesvirus 8, UniProt O40947); experiment: inhibitors of C-LANA binding to LBS DNA, dose response, biochemical, fluorescence polarization, cherry-picked samples (AID 504725); set-up: species or system Human gammaherpesvirus 8;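 note: fluorescence polarization of a labeled DNA duplex reporting LANA DNA binding; potency is for inhibitors that block LANA binding to the DNA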
Sequence of ORF 73 (O40947 whole entry): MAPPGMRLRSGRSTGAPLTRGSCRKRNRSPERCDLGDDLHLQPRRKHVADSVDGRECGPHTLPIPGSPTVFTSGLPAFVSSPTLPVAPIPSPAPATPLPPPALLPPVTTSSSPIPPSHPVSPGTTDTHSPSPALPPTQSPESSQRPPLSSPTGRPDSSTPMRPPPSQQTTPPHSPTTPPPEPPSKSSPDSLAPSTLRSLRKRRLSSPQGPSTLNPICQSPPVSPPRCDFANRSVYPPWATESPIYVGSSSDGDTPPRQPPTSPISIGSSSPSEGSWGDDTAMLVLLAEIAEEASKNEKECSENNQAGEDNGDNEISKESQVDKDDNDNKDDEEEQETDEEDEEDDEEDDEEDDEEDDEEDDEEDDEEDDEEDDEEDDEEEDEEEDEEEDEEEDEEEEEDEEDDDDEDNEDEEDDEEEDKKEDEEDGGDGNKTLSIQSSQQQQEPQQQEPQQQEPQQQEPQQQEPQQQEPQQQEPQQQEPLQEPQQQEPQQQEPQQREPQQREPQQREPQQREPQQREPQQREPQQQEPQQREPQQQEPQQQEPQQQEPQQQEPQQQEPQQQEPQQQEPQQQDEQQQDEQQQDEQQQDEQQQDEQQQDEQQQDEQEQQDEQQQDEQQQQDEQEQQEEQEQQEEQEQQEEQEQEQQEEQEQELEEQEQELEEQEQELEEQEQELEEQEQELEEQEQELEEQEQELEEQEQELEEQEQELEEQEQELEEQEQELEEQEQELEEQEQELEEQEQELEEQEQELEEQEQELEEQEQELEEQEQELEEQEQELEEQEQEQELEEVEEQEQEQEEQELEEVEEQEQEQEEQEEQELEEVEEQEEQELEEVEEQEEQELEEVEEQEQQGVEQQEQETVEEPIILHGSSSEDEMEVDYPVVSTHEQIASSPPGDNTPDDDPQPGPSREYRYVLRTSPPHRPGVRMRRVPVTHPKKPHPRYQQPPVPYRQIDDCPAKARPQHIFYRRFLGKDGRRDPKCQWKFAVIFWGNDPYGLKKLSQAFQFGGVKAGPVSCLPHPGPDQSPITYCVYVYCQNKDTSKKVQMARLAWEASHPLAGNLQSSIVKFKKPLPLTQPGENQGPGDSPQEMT

Keap1/Nrf2 = Keap1/Nrf2 (Homo sapiens, UniProt Q14145); experiment: Keap1-Nrf2 protein-protein interaction inhibitors, dose response, biochemical, fluorescence polarization, cherry-picked samples (AID 588683)
Sequence of Keap1/Nrf2 (Q16236 whole entry): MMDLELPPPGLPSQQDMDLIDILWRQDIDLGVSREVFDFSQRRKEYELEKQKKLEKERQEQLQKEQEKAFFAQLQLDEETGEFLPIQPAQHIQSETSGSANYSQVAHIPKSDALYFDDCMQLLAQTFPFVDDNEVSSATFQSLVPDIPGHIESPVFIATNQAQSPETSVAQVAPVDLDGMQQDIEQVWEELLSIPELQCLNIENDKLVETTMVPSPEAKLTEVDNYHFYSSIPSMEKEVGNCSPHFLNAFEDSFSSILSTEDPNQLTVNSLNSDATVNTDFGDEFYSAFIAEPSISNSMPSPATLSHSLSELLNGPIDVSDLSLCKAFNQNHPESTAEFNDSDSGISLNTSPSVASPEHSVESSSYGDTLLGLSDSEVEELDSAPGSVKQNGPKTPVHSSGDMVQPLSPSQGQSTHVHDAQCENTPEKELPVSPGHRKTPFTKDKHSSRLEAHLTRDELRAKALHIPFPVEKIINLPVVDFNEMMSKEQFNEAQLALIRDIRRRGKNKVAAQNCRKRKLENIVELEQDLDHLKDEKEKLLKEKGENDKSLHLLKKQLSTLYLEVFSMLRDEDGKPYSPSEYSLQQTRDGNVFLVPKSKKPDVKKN
Sequence of Keap1/Nrf2 (Q14145 whole entry): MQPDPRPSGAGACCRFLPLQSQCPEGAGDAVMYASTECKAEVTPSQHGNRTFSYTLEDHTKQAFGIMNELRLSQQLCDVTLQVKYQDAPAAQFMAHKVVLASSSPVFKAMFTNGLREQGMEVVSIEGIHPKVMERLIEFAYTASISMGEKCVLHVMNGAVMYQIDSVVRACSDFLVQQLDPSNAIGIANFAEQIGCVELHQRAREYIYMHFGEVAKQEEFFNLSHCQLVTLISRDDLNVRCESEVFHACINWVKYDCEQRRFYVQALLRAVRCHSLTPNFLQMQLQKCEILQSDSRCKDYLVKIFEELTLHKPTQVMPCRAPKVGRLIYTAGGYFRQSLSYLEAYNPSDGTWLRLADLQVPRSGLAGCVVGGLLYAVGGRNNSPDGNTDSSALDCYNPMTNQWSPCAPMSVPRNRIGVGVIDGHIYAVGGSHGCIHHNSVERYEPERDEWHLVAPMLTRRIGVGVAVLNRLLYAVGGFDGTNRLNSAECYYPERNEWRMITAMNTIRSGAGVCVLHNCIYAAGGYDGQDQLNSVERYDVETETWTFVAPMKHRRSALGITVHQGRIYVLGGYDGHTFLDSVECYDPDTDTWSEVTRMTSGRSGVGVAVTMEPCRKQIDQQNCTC

[14] = target: T2, Rac GTPase-activating protein 1 (Homo sapiens, UniProt Q9H0H5); experiment: MgcRacGAP GTPase-activating activity inhibitors, confirmation, biochemical, ADP Hunter fluorescence, primary and confirmatory (AID 624330); assay type: functional
T2 sequence (Q9H0H5 whole entry): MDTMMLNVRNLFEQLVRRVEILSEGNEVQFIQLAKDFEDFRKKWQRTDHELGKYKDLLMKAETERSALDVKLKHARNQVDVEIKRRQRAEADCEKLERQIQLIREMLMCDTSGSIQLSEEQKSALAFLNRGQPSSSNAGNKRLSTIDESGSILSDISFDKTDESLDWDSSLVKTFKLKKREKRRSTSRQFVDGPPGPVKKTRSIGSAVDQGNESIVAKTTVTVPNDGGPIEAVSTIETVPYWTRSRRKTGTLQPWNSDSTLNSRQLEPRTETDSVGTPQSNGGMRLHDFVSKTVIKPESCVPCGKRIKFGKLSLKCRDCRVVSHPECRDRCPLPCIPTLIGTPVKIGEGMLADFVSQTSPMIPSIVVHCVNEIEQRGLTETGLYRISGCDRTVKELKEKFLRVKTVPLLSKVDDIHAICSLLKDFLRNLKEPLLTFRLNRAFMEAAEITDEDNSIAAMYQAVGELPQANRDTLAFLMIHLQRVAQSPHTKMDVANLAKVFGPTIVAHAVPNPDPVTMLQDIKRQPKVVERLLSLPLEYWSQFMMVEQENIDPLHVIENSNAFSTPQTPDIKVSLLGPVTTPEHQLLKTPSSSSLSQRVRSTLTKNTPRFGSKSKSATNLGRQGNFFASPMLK

X-box-binding protein 1 = X-box-binding protein 1 (Homo sapiens, UniProt P17861); assay type: functional, Cricetulus griseus;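 note: confirmatory dose-response counter-screen serving a CHOP assay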
Sequence of X-box-binding protein 1 (P17861 whole entry): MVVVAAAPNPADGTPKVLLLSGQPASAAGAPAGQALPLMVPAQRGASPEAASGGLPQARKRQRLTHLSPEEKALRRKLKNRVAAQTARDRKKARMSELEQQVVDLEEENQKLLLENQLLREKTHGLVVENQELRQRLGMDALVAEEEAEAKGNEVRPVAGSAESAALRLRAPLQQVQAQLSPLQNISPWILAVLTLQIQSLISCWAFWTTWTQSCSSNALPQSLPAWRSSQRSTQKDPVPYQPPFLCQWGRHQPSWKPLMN

[15] = target: Intestinal-type alkaline phosphatase (Homo sapiens, UniProt P09923); experiment: Dose Response confirmation of uHTS hits from a small molecule inhibitors of human intestinal alkaline phosphatase via a luminescent assay. [Related pubchem assays (depositor defined):AID2544, AID2574]; assay type: functional
Sequence of Intestinal-type alkaline phosphatase (P09923 whole entry): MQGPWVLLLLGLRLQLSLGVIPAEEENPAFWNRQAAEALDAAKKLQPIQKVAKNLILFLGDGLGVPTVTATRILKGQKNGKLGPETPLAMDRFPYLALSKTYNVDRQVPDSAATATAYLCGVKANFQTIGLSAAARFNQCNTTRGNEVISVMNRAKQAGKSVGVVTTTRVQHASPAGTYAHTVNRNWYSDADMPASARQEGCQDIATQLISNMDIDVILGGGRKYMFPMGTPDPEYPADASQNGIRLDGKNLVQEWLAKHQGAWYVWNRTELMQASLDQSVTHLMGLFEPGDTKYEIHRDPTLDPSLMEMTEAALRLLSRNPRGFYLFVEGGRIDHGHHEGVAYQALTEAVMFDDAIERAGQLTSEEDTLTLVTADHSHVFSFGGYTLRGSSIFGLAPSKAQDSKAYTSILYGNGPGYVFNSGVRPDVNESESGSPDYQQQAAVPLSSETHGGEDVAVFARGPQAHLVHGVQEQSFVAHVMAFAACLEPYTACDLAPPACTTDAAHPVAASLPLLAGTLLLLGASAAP

Coagulation factor XII = target: T3, Coagulation factor XII (Homo sapiens, UniProt P00748); experiment: FXIIa inhibitor potency, concentration-response, biochemical (AID 716); assay type: functional
T3 sequence (P00748 whole entry): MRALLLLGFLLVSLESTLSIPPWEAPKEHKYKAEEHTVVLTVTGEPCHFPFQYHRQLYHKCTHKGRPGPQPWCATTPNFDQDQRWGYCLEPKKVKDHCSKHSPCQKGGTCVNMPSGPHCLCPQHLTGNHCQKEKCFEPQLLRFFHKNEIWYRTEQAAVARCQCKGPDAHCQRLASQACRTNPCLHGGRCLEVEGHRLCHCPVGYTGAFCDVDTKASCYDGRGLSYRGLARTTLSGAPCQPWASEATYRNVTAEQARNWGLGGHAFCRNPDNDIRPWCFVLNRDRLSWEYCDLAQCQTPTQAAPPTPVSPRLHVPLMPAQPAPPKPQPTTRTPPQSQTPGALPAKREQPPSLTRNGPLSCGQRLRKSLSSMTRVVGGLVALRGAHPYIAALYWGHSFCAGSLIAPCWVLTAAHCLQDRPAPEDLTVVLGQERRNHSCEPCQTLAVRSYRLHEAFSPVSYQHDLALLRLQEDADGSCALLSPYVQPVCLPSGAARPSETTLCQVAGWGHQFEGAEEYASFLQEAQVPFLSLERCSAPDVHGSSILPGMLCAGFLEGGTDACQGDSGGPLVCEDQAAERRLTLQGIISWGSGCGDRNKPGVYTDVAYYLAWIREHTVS

[16] = target: FAD-linked sulfhydryl oxidase ALR (Homo sapiens, UniProt P55789); experiment: inhibitors of human ALR sulfhydryl oxidase, dose response, biochemical, H2O2 detection, luminescence, cherry-pick (AID 493248)
Sequence of FAD-linked sulfhydryl oxidase ALR (P55789 whole entry): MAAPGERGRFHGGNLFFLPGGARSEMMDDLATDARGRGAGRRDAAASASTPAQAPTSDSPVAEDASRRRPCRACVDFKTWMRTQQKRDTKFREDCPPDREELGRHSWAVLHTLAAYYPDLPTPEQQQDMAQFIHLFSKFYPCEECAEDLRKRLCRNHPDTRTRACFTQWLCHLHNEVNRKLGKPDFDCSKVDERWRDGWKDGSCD

Hexokinase = Hexokinase (Trypanosoma brucei, UniProt Q38C41); experiment: Confirmation assay for inhibitors of Trypanosoma brucei hexokinase 1-Analogue-first series. [Related pubchem assays (depositor defined):AID1430, AID1632, AID2516, AID2560, AID2579, AID2600, AID449725, AID492951]; assay type: functional
Sequence of Hexokinase (Q38C41 whole entry): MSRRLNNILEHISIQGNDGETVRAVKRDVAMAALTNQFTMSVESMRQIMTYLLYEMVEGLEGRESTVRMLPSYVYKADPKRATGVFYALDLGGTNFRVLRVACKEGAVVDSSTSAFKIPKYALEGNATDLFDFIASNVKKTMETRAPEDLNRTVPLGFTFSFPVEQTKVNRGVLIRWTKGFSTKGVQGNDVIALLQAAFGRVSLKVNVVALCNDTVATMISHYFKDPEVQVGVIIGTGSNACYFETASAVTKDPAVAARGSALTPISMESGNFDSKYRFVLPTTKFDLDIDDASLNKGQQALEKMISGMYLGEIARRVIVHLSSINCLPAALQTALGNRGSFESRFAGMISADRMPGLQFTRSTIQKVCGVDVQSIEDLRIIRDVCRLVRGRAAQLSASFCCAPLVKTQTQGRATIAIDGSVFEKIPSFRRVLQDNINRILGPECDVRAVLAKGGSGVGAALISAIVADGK

O=C(CN1C(=O)c2ccccc2S1(=O)=O)N1CCc2ccccc21
EC50 (HEK293 [1]): 0.53 µM (active) | EC50 [2]: > 8 µM (not active) | EC50 (HEK293 [3]): > 8 µM (not active) | EC50 (HEK293 [4]): > 8 µM (inactive) | IC50 [5]: 35.3 µM (not active) | EC50 (HEK293 [6]): > 8 µM (not active) | IC50 [7]: > 80 µM (inactive) | AC50 [8]: 2.89 µM (active) | AC50 [9]: 8.62 µM (active) | AC50 (Paired box protein Pax-8): 4.88 µM (active) | AC50 [10]: 3.84 µM (active) | AC50 [11]: 3.89 µM (active)

COc1ccc(NC(=O)c2cccc(-c3ccc(O)cc3)c2)cn1
EC50 [12]: 16.9 µM (active) | EC50 (Streptokinase A): > 150 µM (not active) | EC50 (Streptococcus): > 150 µM (not active) | AC50 (HeLa): 144 µM (active) | AC50 [13]: 4.31 µM (active) | AC50 (Salmon testes DNA): 45.4 µM (active) | AC50 (ORF 73): 34.3 µM (active) | AC50 (Keap1/Nrf2): 43.8 µM (active) | IC50 [14]: 42.3 µM (active)

O=C1CC(c2ccccc2Cl)CC(=O)C1=CNc1ccccc1 (stereo unspecified)
Absolute IC50 (XBP1) (X-box-binding protein 1): 10 µM

CCOc1cccc(OCCOCCOc2ccccc2C(C)=O)c1
IC50 [15]: > 100 µM (inactive)

CC(C)C1C(C#N)=C(N)Oc2[nH]nc(-c3cccs3)c21 (stereo unspecified)
IC50 (Coagulation factor XII): > 50 µM (inactive) | AC50 [16]: 6.41 µM (active)

O=c1cc(-c2ccccc2)sn1-c1ccccc1
IC50 (Hexokinase): > 25 µM (inactive)
